# Data taken from patent US9700044B2, “Symmetrical marinopyrrole derivatives as potential antibiotic agents” (priority 2013, dated 2017).
# Experiments:
# [1] = system: Methicillin-resistant Staphylococcus epidermidis (MRSE); assay: MIC by agar dilution, MRSE clinical isolates; assay type: cell-based; settings: Table 1; MRSE, 3 isolates
# Excerpt: (§1) A panel of multiple resistance Gram-positive and Gram-negative pathogens listed in Tables 1 and 2 was used to evaluate the antimicrobial activity of marinopyrrole derivatives (Chart 1) with vancomycin as a positive control. Except for those marked with WHO, all pathogens were isolated between 2008 and 2010 in hospitals located in Beijing; Guangzhou; Sichuan, Shandong and Jiangsu Province. Determination of the minimum inhibitory concentration (MIC) was done by the guidelines of the Clinical and Laboratory Standards Institute (Clinical and Laboratory Standards Institute, Performance standards for antimicrobial susceptibility testing, seventeenth informational supplement. 2007, 27, M100-S17). The susceptibility tests of a bacterial strain to a marinopyrrole derivative were performed by an agar dilution method. Briefly, each sterile petri dish contained a final volume of 15 mL comprising 1 mL of a marinopyrrole derivative and 14 mL of Mueller-Hinton broth. The concentrations of a marinopyrrole derivative are 128, 64, 32, 16, 8, 4, 2, 1, 0.5, 0.25, 0.125, 0.06, 0.03, 0.015 and 0.008 μg/mL. The petri dish containing the broth with different concentration of antibiotics was first inoculated with 10^5 CFU/mL (Denley A400, United Kingdom) and the culture was then incubated with shaking at 35-37° C. for 18-20 h. The potency of the compound was determined and expressed as minimum inhibitory concentration (MIC) in μg/mL. The MIC was determined as the lowest concentration of antibiotic that inhibited visible bacterial growth.
# [2] = system: Methicillin-resistant Staphylococcus aureus (MRSA); assay: MIC by agar dilution, MRSA clinical isolates; assay type: cell-based; settings: Table 1; MRSA, 10 isolates
# Excerpt: as §1
# K. penumonia = assay: MIC by agar dilution, K. penumonia; assay type: cell-based, K. pneumonia; settings: Table 1; K. penumonia, 4 isolates; value over three Gram-negative pathogens
# Excerpt: as §1
# E. coli = assay: MIC by agar dilution, E. coli; assay type: cell-based; settings: Table 1; E. coli, 4 isolates; value over three Gram-negative pathogens
# Excerpt: as §1
# [3] = system: Methicillin-susceptible Staphylococcus aureus (MSSA); assay: MIC by agar dilution, MSSA clinical isolates; assay type: cell-based; settings: Table 1; MSSA, 10 isolates
# Excerpt: as §1
# [4] = system: Methicillin-resistant Staphylococcus aureus with the mec A gene and PBP2a (WHO-31); assay: MIC by agar dilution, MRSA (WHO-31); assay type: cell-based; settings: Table 1; MRSA (WHO-31), 1 isolate
# Excerpt: as §1
# [5] = system: Moderately vancomycin-resistant Enterococci faecium with the VanA gene (WHO-3); assay: MIC by agar dilution, VRE (WHO-3); assay type: cell-based; settings: Table 1; VRE (WHO-3), 1 isolate
# Excerpt: as §1
# [6] = system: Highly vancomycin-resistant Enterococci faecalis (VRE); assay: MIC by agar dilution, highly resistant VRE; assay type: cell-based; settings: Table 1; VRE (highly vancomycin-resistant E. faecalis), 2 isolates
# Excerpt: as §1
# P. aeruginosa = assay: MIC by agar dilution, P. aeruginosa; assay type: cell-based; settings: Table 1; P. aeruginosa, 4 isolates; value over three Gram-negative pathogens
# Excerpt: as §1
# [7] = system: Oxacillin-resistant Staphylococcus aureus (WHO-25); assay: MIC by agar dilution, ORSA (WHO-25); assay type: cell-based; settings: Table 1; ORSA (WHO-25), 1 isolate
# Excerpt: as §1
Structure (SMILES),MIC [1] [µg/mL],MIC [2] [µg/mL],MIC (K. penumonia) [µg/mL],MIC (E. coli) [µg/mL],MIC [3] [µg/mL],MIC [4] [µg/mL],MIC [5] [µg/mL],MIC [6] [µg/mL],MIC (P. aeruginosa) [µg/mL],MIC [7] [µg/mL]
O=C(c1ccccc1)c1[nH]c(Cl)c(Cl)c1-n1c(C(=O)c2ccccc2)cc(Cl)c1Cl [Compound 1d],0.5 to 4,4 to 8,>128,>128,2 to 8,4,2,>128,>128,4
COc1cccc(C(=O)c2[nH]c(Cl)c(Cl)c2-n2c(C(=O)c3cccc(OC)c3)cc(Cl)c2Cl)c1 [Compound 1e],>128,>128,>128,>128,>128,>128,>128,>128,>128,>128
COc1ccc(C(=O)c2[nH]c(Cl)c(Cl)c2-n2c(C(=O)c3ccc(OC)cc3)cc(Cl)c2Cl)cc1 [Compound 1f],>128,>128,>128,>128,>128,>128,>128,>128,>128,>128
O=C(c1ccccc1F)c1[nH]c(Cl)c(Cl)c1-n1c(C(=O)c2ccccc2F)cc(Cl)c1Cl [Compound 1g],>128,>128,>128,>128,>128,>128,>128,>128,>128,>128
O=C(c1cccc(F)c1)c1[nH]c(Cl)c(Cl)c1-n1c(C(=O)c2cccc(F)c2)cc(Cl)c1Cl [Compound 1h],0.13 to 1,>64,>128,>128,4 to 16,4,4,>128,>128,4
O=C(c1ccc(F)cc1)c1[nH]c(Cl)c(Cl)c1-n1c(C(=O)c2ccc(F)cc2)cc(Cl)c1Cl [Compound 1i],0.25 to 4,8 to 16,>128,>128,4 to 16,4,4,>128,>128,8
O=C(c1ccccc1C(F)(F)F)c1[nH]c(Cl)c(Cl)c1-n1c(C(=O)c2ccccc2C(F)(F)F)cc(Cl)c1Cl [Compound 1j],>128,>128,>128,>128,>128,>128,>128,>128,>128,>128
O=C(c1ccc(C(F)(F)F)cc1)c1[nH]c(Cl)c(Cl)c1-n1c(C(=O)c2ccc(C(F)(F)F)cc2)cc(Cl)c1Cl [Compound 1k],0.03 to 4,32 to 64,>128,>128,8 to 32,8,8,>128,>128,8
COc1cc(O)c(C(=O)c2[nH]c(Cl)c(Cl)c2-n2c(C(=O)c3cc(Cl)c(OC)cc3O)cc(Cl)c2Cl)cc1Cl [Compound 1m],0.25 to 4,2 to 8,>128,>128,2 to 8,4,0.5,>128,>128,4
